US10568930B2, “Agents and methods of treatment” (Hexima Limited, priority 2014, dated 2020)

What was measured:
Format in all cases: cell-based
Details in all cases: for Expected inhibition: Ee, Limpel formula; for Synergy: Io-Ee
Candida albicans [1] = test: Antifungal growth assay, defensin plus proteinase inhibitor; design: key to Synergy: Io-Ee in % inhibition points; >60 high synergy, <15 none
Experimental: (§1) Spores are isolated from sporulating fungus spp. growing on yeast extract peptone dextrose agar (Candida albicans, Cryptococcus gattii—1.5×10^6) or ½ strength Sabouraud dextrose agar (Trichophyton interdigitale, Microsporum fulvum—5×10^4). Spores are removed from the plates by the addition of ½ strength potato dextrose broth (PDB). Spore concentrations are measured using a haemocytometer.
(§2) Antifungal assays were conducted in 96 well microtitre plates. Wells were loaded with 10 μL of filter sterilized (0.22 μm syringe filter, Millipore) defensin (10× stock for each final concentration) or water, 10 μL, of filter sterilized (0.22 μm syringe filter, Millipore) proteinase inhibitor or chemical fungicide (10× stock for each final concentration) or water and 80 μL of 5×10^3 spores/mL in ½ strength PDB. The plates were incubated at 24° C. Fungal growth was assayed by measuring optical density at 595 nm (A595) using a microtitre plate reader (SpectraMax Pro M2; Molecular Devices. Growth was allowed to proceed until the optical density (OD) of the fungus in the absence of any test defensin reached an OD of 0.2. Each test was performed in duplicate.
(§3) Synergy is classified as the difference between the observed % fungal growth inhibition caused by the combination of a defensin and a proteinase inhibitor (or a defensin and a chemical fungicide) (Io value) and the expected % fungal growth inhibition of the defensin and the proteinase inhibitor (or the defensin and the chemical fungicide) based on the sum of the % fungal growth inhibition of the defensin and the proteinase inhibitor (or the defensin and the chemical fungicide) on their own (Ee value calculated according to the Limpel formula used by Richer et al. (1987) supra). The difference, Io-Ee, is the synergy value. A synergy value up to 15 means no significant synergy; 15-30 is a low level of synergy; 30-60 is a medium level of synergy; and >60 is a high level of synergy. Synergy calculations are presented in Tables 2 through 7 wherein, as indicated above, Ee is the expected effect from the additive response according to Limpel's formula expressed as percent inhibition and To is the percent inhibition observed. Synergy occurs when To values are higher than Ee values.

[2] = tested on: Trichophyton interdigitale; test: as above
Experimental: as §1, §2, §3

Candida albicans [3] = test: Antifungal growth assay, defensin plus chemical fungicide; design: key to Synergy: Io-Ee in % inhibition points; <15 none, 15-30 low, 30-60 medium, >60 high
Experimental: Chemical fungicides were sourced commercially and were prepared as 10× stock solutions in H2O (caspofungin and fenpropimorph) or as a 100× stock in methanol (terbinafine).
as §1, §2, §3

[4] = defensin 4 μM + BPTI (0.625 μM)
[5] = defensin 4 μM + HyCPI6 (2.5 μM)
[6] = defensin 0.5 μM + BPTI (0.625 μM)
[7] = defensin 0.5 μM + HvCPI6 (2.5 μM)
[8] = defensin 0.5 μM + SlCys9N (2.5 μM)
[9] = defensin 2.5 μM + Caspofungin (4 ng/ml)
[10] = defensin 2 μM + BPTI (0.625 μM)
[11] = defensin 2 μM + HyCPI6 (2.5 μM)
[12] = defensin 2 μM + SlCys9N (2.5 μM)
[13] = permeabilizing defensin 1 μM + Caspofungin (2 ng/ml)
[14] = defensin 2 μM + Fenpropimorph (2 ug/ml)
[15] = defensin 4 μM + SlCys9N (2.5 μM)
[16] = defensin 1 μM + HyCPI6 (2.5 μM)
[17] = defensin 1 μM + SlCys9N (2.5 μM)
[18] = defensin 1 μM + BPTI (0.625 μM)
[19] = defensin 1 μM + Fenpropimorph (2 ug/ml)
[20] = non-permeabilizing defensin 1 μM + Caspofungin (2 ng/ml)

Question: What does the source list for “HXL001: Class I permeabilizing plant defensin, mature protein SEQ ID NO:26 (RHCLSQSHRFKGLCMSSNNCANVCQTENFPGGECKAEGATRKCFCKKIC; HXL001 Zea mays)”?
Answer: Observed inhibition (Candida albicans [1]; [4]): 72.6%; Expected inhibition (Candida albicans [1]; [4]): 2.6%; Synergy (Candida albicans [1]; [4]): 70.1; Observed inhibition (Candida albicans [1]; [5]): 84.2%; Expected inhibition (Candida albicans [1]; [5]): 59.2%; Synergy (Candida albicans [1]; [5]): 25.0; Observed inhibition (Candida albicans [1]; defensin 4 μM + SlCys9N (2 μM)): 85.0%; Expected inhibition (Candida albicans [1]; defensin 4 μM + SlCys9N (2 μM)): 68.1%; Synergy (Candida albicans [1]; defensin 4 μM + SlCys9N (2 μM)): 16.9; Observed inhibition [2, 6]: 67.4%; Expected inhibition [2, 6]: 36.9%; Synergy [2, 6]: 30.5; Observed inhibition [2, 7]: 84.7%; Expected inhibition [2, 7]: 32.5%; Synergy [2, 7]: 52.2; Observed inhibition [2, 8]: 70.2%; Expected inhibition [2, 8]: 16.8%; Synergy [2, 8]: 53.4; Observed inhibition (Candida albicans [3]; [9]): 73.4%; Expected inhibition (Candida albicans [3]; [9]): 11.7%; Synergy (Candida albicans [3]; [9]): 61.7

Question: How did the Observed inhibition (Candida albicans [3]; [9]) turn out when “HXL002: Class I permeabilizing plant defensin, mature protein SEQ ID NO:27 (RDCLSQSHKFKGACLSSSNCAAVCRTENFPDGECHTHNFARKCFCKRAC; HXL002 Triticum aestivum)” was run?
Answer: 40.8%

Question: And the Expected inhibition (Candida albicans [3]; [9])?
Answer: 6.1%

Question: And the Synergy (Candida albicans [3]; [9])?
Answer: 34.7

Question: What does the source list for “HXL004: Class I permeabilizing plant defensin, mature protein SEQ ID NO:28 (RTCESQSHRFKGLCFSRSNCASVCHTEGFNGGHCRGFRRRCFCTRHC; HXL004 Nicotiana benthamiana)”?
Answer: Observed inhibition (Candida albicans [1]; [10]): 91.2%; Expected inhibition (Candida albicans [1]; [10]): 9.6%; Synergy (Candida albicans [1]; [10]): 81.6; Observed inhibition (Candida albicans [1]; [11]): 93.5%; Expected inhibition (Candida albicans [1]; [11]): 63.6%; Synergy (Candida albicans [1]; [11]): 29.9; Observed inhibition (Candida albicans [1]; [12]): 81.8%; Expected inhibition (Candida albicans [1]; [12]): 55.2%; Synergy (Candida albicans [1]; [12]): 26.6; Observed inhibition (Candida albicans [3]; [13]): 92.3%; Expected inhibition (Candida albicans [3]; [13]): 14.0%; Synergy (Candida albicans [3]; [13]): 78.3

Question: What does the source list for “HXL008: Class I permeabilizing plant defensin, mature protein SEQ ID NO:30 (KVCTKPSKFFKGLCGTDGACTTACRKEGLHSGYCQLKGFLNSVCVCRKHC; HXL008 Picramnia pentandra)”?
Answer: Observed inhibition (Candida albicans [1]; [10]): 100.0%; Expected inhibition (Candida albicans [1]; [10]): 0.0%; Synergy (Candida albicans [1]; [10]): 100.0; Observed inhibition (Candida albicans [1]; [11]): 63.8%; Expected inhibition (Candida albicans [1]; [11]): 14.8%; Synergy (Candida albicans [1]; [11]): 49.0; Observed inhibition (Candida albicans [1]; [12]): 98.9%; Expected inhibition (Candida albicans [1]; [12]): 30.2%; Synergy (Candida albicans [1]; [12]): 68.7; Observed inhibition (Candida albicans [3]; [14]): 87.3%; Expected inhibition (Candida albicans [3]; [14]): 46.7%; Synergy (Candida albicans [3]; [14]): 40.6

Question: What does the source list for “HXL009: Class I permeabilizing plant defensin, mature protein SEQ ID NO:33 (TVCMRHNNFYHGPCMSNKDCANSCVQHNLGVGGYCRGKIPFNKECMCTFEC; HXL009)”?
Answer: Observed inhibition (Candida albicans [3]; [9]): 65.2%; Expected inhibition (Candida albicans [3]; [9]): 3.7%; Synergy (Candida albicans [3]; [9]): 61.5

Question: Which results are given for “HXL012: Class I permeabilizing plant defensin, mature protein SEQ ID NO:25 (RMCKAPSKLFRGMCGIRDSNCDSVCRAEGMAAGDCHGLRRRCICSRPC; HXL012 Amaranthus retroflexus)”?
Answer: Observed inhibition (Candida albicans [1]; [4]): 89.7%; Expected inhibition (Candida albicans [1]; [4]): 14.8%; Synergy (Candida albicans [1]; [4]): 74.9; Observed inhibition (Candida albicans [1]; [5]): 100.0%; Expected inhibition (Candida albicans [1]; [5]): 12.3%; Synergy (Candida albicans [1]; [5]): 87.7; Observed inhibition (Candida albicans [1]; [15]): 97.3%; Expected inhibition (Candida albicans [1]; [15]): 34.5%; Synergy (Candida albicans [1]; [15]): 62.8; Observed inhibition (Candida albicans [3]; [9]): 51.2%; Expected inhibition (Candida albicans [3]; [9]): 0%; Synergy (Candida albicans [3]; [9]): 51.2

Question: With “HXL013: Class I permeabilizing plant defensin, mature protein SEQ ID NO:31 (KDCLTRRHGFQGRCLFDRQCAHVCRSDGFIGGQCRGPLRKCFCSRPC; HXL013 glycine max)” as the substance, how does the Observed inhibition (Candida albicans [1]; [16]) read?
Answer: 100.0%

Question: And the Expected inhibition (Candida albicans [1]; [16])?
Answer: 10.1%

Question: What about the Synergy (Candida albicans [1]; [16]) of the same substance?
Answer: 89.9

Question: And the Observed inhibition (Candida albicans [1]; [17])?
Answer: 100.0%

Question: What about the Expected inhibition (Candida albicans [1]; [17]) of the same substance?
Answer: 13.8%

Question: And the Synergy (Candida albicans [1]; [17])?
Answer: 86.2

Question: And the Observed inhibition (Candida albicans [3]; [13])?
Answer: 90.8%

Question: And the Expected inhibition (Candida albicans [3]; [13])?
Answer: 4.3%

Question: And the Synergy (Candida albicans [3]; [13])?
Answer: 86.5

Question: “HXL015: Class I permeabilizing plant defensin, mature protein SEQ ID NO:32 (RHCLSQSHRFKGMCVSSNNCANVCRTESFPDGECKSHGLERKCFCKKVC; HXL015 Oryza sativa)” was tested. Which Observed inhibition (Candida albicans [1]; [18]) did it give?
Answer: 100.0%

Question: What about the Expected inhibition (Candida albicans [1]; [18]) of the same substance?
Answer: 28.1%

Question: What about the Synergy (Candida albicans [1]; [18]) of the same substance?
Answer: 71.9

Question: What about the Observed inhibition (Candida albicans [1]; [16]) of the same substance?
Answer: 100.0%

Question: And the Expected inhibition (Candida albicans [1]; [16])?
Answer: 0.0%

Question: What about the Synergy (Candida albicans [1]; [16]) of the same substance?
Answer: 100.0

Question: And the Observed inhibition (Candida albicans [1]; [17])?
Answer: 94.7%

Question: What about the Expected inhibition (Candida albicans [1]; [17]) of the same substance?
Answer: 0.0%

Question: What about the Synergy (Candida albicans [1]; [17]) of the same substance?
Answer: 94.7

Question: And the Observed inhibition (Candida albicans [3]; [19])?
Answer: 71.8%

Question: What about the Expected inhibition (Candida albicans [3]; [19]) of the same substance?
Answer: 19%

Question: And the Synergy (Candida albicans [3]; [19])?
Answer: 52.8

Question: For “RsAFP2: non-permeabilizing defensin used as comparison (QKLCQRPSGTWSGVCGNNNACKNQCIRLEKARHGSCNYVFPAHKCICYFPC; UniProt P30230 30-80, looked up) [reference compound]”, which Observed inhibition (Candida albicans [3]; [20]) is on record?
Answer: 19.0%

Question: What about the Expected inhibition (Candida albicans [3]; [20]) of the same substance?
Answer: 1.7%

Question: And the Synergy (Candida albicans [3]; [20])?
Answer: 17.3
